≈ marks a conversion by molar mass, not a printed value. Like-named read-outs stand apart in the source and are kept apart here.

Results on three molecules are retold here after publication PMC7661526, “Antibiofilm effects of N,O-acetals derived from 2-amino-1,4-naphthoquinone are associated with downregulation of important global virulence regulators in methicillin-resistant Staphylococcus aureus” (Scientific Reports, 2020).

The nature of one data set: Hemocompatibility assay. The following applies: human, pH 7.4. How it is done: (§1) Erythrocytes were collected from three human volunteers in a citrate tube and washed three times (3×) with PBS (pH 7.4). All derivatives were incubated with the PBS-erythrocyte suspension for 3 h at 37 °C. The hemolysis with the release of hemoglobin was quantified by the spectrophotometric reading of the supernatant at 545 nm. Hemolysis less than 10% represented hemocompatibility and non-toxicity against erythrocyte membranes. For the positive control, the human erythrocytes were lysed with 1% (v/v) Triton X-100. The negative control was performed with 1% (v/v) DMSO only (final concentration). […] All methods were carried out in accordance with relevant guidelines and regulations. In addition, informed consent was obtained from all volunteers. Three independent experiments were performed in triplicate.

The subject of data set [1] is MRSA ST5-SCCmecIV (USA800). The experiment in a line: Disk diffusion test. It is filed as cell-based, Staphylococcus aureus.
For data set [2], the system named is MRSA ST5-SCCmecII (USA100). The experiment in a line: Disk diffusion test. It is filed as cell-based, Staphylococcus aureus.
Data set [3] has as its system MRSA ST239-SCCmecIII (BMB9393). The experiment in a line: Disk diffusion test. It counts as cell-based, Staphylococcus aureus.
Data set [4] deals with S. aureus ATCC 25923. The experiment in a line: Disk diffusion test. It is filed as cell-based, Staphylococcus aureus. The text has this: (§2) Strain representatives of six globally spread clones/lineages of MRSA were used in this study to test the antimicrobial activity of the N,O-acetal derivatives against MRSA: NY/Japan-USA100/ST5-SCCmecII (strain CR15-071), USA300/ST8-SCCmecIV (strain USA300-0114), USA400/ST1-SCCmecIV (strain USA400-0051), Brazilian epidemic clone-BEC/ST239-SCCmecIII (strain BMB9393), pediatric clone-USA800/ST5-SCCmecIV (strain USA800-0179), and OSPC-USA1100/ST30-SCCmecIV (strain 07-040). The S. aureus ATCC 25923 was used as a control for the experiment of drug susceptibility. […] For biofilm production, tryptic soy broth (TSB; BD, Franklin Lakes, NJ, USA) was supplemented with 1% (w/v) glucose (TSB-Glu). Tryptic soy agar (TSA; BD) was used for bacterial growth. The Mueller-Hinton broth (MHB; BD) and Mueller-Hinton agar (MHA; BD) was used for susceptibility tests. All strains were maintained in 10% (v/v) glycerol stocks and stored at − 80 °C.
(§3) The antibacterial activity of 6a and its derivatives 7a, 7b, and 7c was tested as previously described using paper disks impregnated with each compound[13]. The derivatives were also analyzed quantitatively using microdilution assays in 96-well inert polystyrene microtiter plates (Nuclon; Nalge Nunc International, Rochester, NY, USA) to determine the minimal inhibitory concentration (MIC)[14]. Biological control, as well as growth conditions, were performed following CLSI recommendation[15],[16]. […] Controls were also performed using 2% (v/v) DMSO only.

The test system of data set [5] is MRSA strain BMB9393 biofilm. In words: Biofilm development on polystyrene, crystal violet. It counts as cell-based, Staphylococcus aureus. The settings on record: 1/4MIC (6a 32 µg/mL, 7a 64 µg/mL, vancomycin 0.5 µg/mL); strain BMB9393. How it is done:
Biofilms were formed on polystyrene surfaces using the BEC representative, strain BMB9393. […] The same volume of the bacterial culture in TSB-Glu (37 °C/18 h; at 250 rpm) diluted 1/100 in the same broth was added to the wells. After incubation (37 °C/24 h), supernatants were gently removed, rinsed with distilled water, and treated with crystal violet solution as described. […] Eight independent tests with three replicates each were performed. Controls were inoculated with the same bacterial inoculum but using only TSB-Glu with 2% (v/v) DMSO, final concentration.

The subject of data set [6] is S. aureus ATCC 25923. The experiment in a line: MIC, broth microdilution. It is filed as cell-based, Staphylococcus aureus.
Excerpt: as §2, §3

The subject of data set [7] is MRSA ST8-SCCmecIV (USA300). The experiment in a line: Disk diffusion test. It counts as cell-based, Staphylococcus aureus.
Data set [8] deals with MRSA ST30-SCCmecIV (USA1100). The experiment in a line: Disk diffusion test. It is filed as cell-based, Staphylococcus aureus.
For data set [9], the system named is MRSA (ST1-SCCmecIV) (USA400). In words: Disk diffusion test. It counts as cell-based, Staphylococcus aureus.
The next data set is described as follows: Cytotoxicity assay (MTT). The following applies: African green monkey, Vero cell monolayers. How it is done:
(§4) Plates were incubated for 1 h, the supernatant again removed, and 200 µL dimethyl sulfoxide (DMSO) were added to each well to dissolve the formazan crystals for 10 min. Absorbance was measured at 570 nm using an ELISA reader (Thermo Plate, TP-READER, Thermo Fisher Scientific). […] The selectivity index (SI) was calculated as follows: SI (µg/mL) = CC50/MIC[17]. Three independent experiments were performed in triplicate. Controls were performed using 2% (v/v) DMSO only.

A further data set relates to MRSA BEC (BMB9393). The experiment in a line: microbe, parasite or virus in culture. It is filed as cell-based, Staphylococcus aureus. How it is done: (§5) For biofilm production, tryptic soy broth (TSB; BD, Franklin Lakes, NJ, USA) was supplemented with 1% (w/v) glucose (TSB-Glu). Tryptic soy agar (TSA; BD) was used for bacterial growth. The Mueller-Hinton broth (MHB; BD) and Mueller-Hinton agar (MHA; BD) was used for susceptibility tests. All strains were maintained in 10% (v/v) glycerol stocks and stored at − 80 °C.
(§6) The derivatives were also analyzed quantitatively using microdilution assays in 96-well inert polystyrene microtiter plates (Nuclon; Nalge Nunc International, Rochester, NY, USA) to determine the minimal inhibitory concentration (MIC)[14]. Biological control, as well as growth conditions, were performed following CLSI recommendation[15],[16]. […] Controls were also performed using 2% (v/v) DMSO only.

For data set [10], the system named is MRSA USA400 (USA400-0051). The experiment in a line: MIC, broth microdilution. It is filed as cell-based, Staphylococcus aureus. How it is done:
as §5, §6

In data set [11] the test system is MRSA OSPC-USA1100 (07-040). The experiment in a line: MIC, broth microdilution. It is filed as cell-based, Staphylococcus aureus. How it is done: as §5, §6
Data set [12] has as its system MRSA NY/Japan-USA100 (CR15-071). In words: MIC, broth microdilution. It counts as cell-based, Staphylococcus aureus. How it is done:
as §5, §6

Data set [13] has as its system MRSA USA300 (USA300-0114). In words: MIC, broth microdilution. It is filed as cell-based, Staphylococcus aureus. How it is done:
as §5, §6

Data set [14] deals with MRSA Pediatric-USA800 (USA800-0179). The experiment in a line: MIC, broth microdilution. It is filed as cell-based, Staphylococcus aureus. How it is done:
as §5, §6

In data set [15] the test system is MRSA strain CR15-071 (USA100) cells persistent to vancomycin. The experiment in a line: Vancomycin-persistent cells, high bacterial load on TSA plates. The settings on record: vancomycin alone, 4MIC (8 µg/mL) plates, high inoculum. It counts as cell-based, Staphylococcus aureus. How it is done: For this test, we choose the MRSA strain CR15-071 representative of the ST5-SCCmecII lineage (NY/Japan-USA100 clone), since this MRSA has replaced the ST239-SCCmecIII (the Brazilian clone) in this country, and is now the most frequent MRSA lineage in Brazilian hospitals. […]. The plates were incubated at 37 °C/24 h before being examined. […]. Bacterial growth was determined by removing persistent cells from the plates and determining UFC/ml. Controls were also performed using 2% (v/v) DMSO only. Three independent experiments were performed in triplicate.

For a further data set, the system named is human erythrocytes. In words: Hemocompatibility assay. The settings on record: highest concentration evaluated (300 µg/mL), 3 h at 37 °C. How it is done:
as §1

In a further data set the test system is Vero cell line. The experiment in a line: Cytotoxicity assay (MTT). The following applies: Vero cells, 24 h, MTT. How it is done:
as §4

[16] abbreviates: Table 2, used for SI, strain not given, values of 6a-7c equal those for BEC (BMB9393).

In the data set “Hemocompatibility assay” (human erythrocyte suspension), `NC1=CC(=O)c2ccccc2C1=O` [6a, 2-amino-1,4-naphthoquinone] returned a hemolysis at 3 h, 300 µg/mL of 3 ± 0.9%. The Inhibition zone amounted to 8±1.0 mm in data set [1]; 9±1.0 mm in data set [2]; 8±2.0 mm in data set [3]; 9±1.4 mm in the data set on S. aureus ATCC 25923 [4]; 9±1.0 mm in data set [7]; 10±0.5 mm in data set [8]. For the same molecule, in data set [9], the Inhibition zone stood at 8±1.2 mm. The “Effect on biofilm development” value in data set [5] is given as “much less effective at reducing biofilm development compared with 7b or 7c”. The MIC is 32 µg/mL (≈ 185 µM) in the data set on S. aureus ATCC 25923 [6] (Staphylococcus aureus, ATCC25923, control strain S. aureus ATCC 25923, read-out: MIC); 128 µg/mL (≈ 739 µM) with MRSA BEC (BMB9393) (Staphylococcus aureus, MRSA); 128 µg/mL (≈ 739 µM) with MRSA BEC (BMB9393) (setting [16]); 128 µg/mL (≈ 739 µM) in [10] (Staphylococcus aureus); 256 µg/mL (≈ 1480 µM) in data set [11] (Staphylococcus aureus, MRSA); 256 µg/mL (≈ 1480 µM) in [12] (Staphylococcus aureus). Besides, the MIC in [13] (Staphylococcus aureus) worked out at 256 µg/mL (≈ 1480 µM); in data set [14] (Staphylococcus aureus), 128 µg/mL (≈ 739 µM). Moreover, in the data set “Cytotoxicity assay (MTT)”, half-maximal cytotoxicity (CC50 at 24 h) was put at 97.3 ± 3.12 µg/mL (≈ 562 µM).
In turn, `CN[C@H](CC(C)C)C(=O)N[C@H]1C(=O)N[C@@H](CC(N)=O)C(=O)N[C@H]2C(=O)N[C@H]3C(=O)N[C@H](C(=O)N[C@H](C(=O)O)c4cc(O)cc(O)c4-c4cc3ccc4O)[C@H](O)c3ccc(c(Cl)c3)Oc3cc2cc(c3O[C@@H]2O[C@H](CO)[C@@H](O)[C@H](O)[C@H]2O[C@H]2C[C@](C)(N)[C@H](O)[C@H](C)O2)Oc2ccc(cc2Cl)[C@H]1O` [Vancomycin, vancomycin, reference compound] had a hemolysis at 3 h in “Hemocompatibility assay” of 3.6 ± 0.8%. The Inhibition zone was found to be 17±1.5 mm in [1]; 16±1.5 mm in data set [2]; 14±1.0 mm in data set [3]; 13±1.0 mm with S. aureus ATCC 25923 [4]; 17±1.0 mm in data set [7]; 16±1.5 mm in [8]. In [9], this molecule had an Inhibition zone of 16±2.0 mm. Further, the Refractory/persistent cells recovered in [15] is 4.5 × 10^8 CFU/mL. Also, the “Effect on biofilm development” value in data set [5] was “not able to reduce biofilm development”.
Regarding `COCNC1=CC(=O)c2ccccc2C1=O` [7a, 2-(methoxymethyl)-amino-1,4-naphthoquinone], in the data set with human erythrocytes, the “Hemolysis, maximum values” was found to be 3.10 ± 0.1%. The Inhibition zone in data set [1] worked out at 12±1.0 mm; in data set [2], 12±1.0 mm; in [3], 10±1.5 mm; in the data set with S. aureus ATCC 25923 [4] it was 9.7±2.0 mm; in data set [7] it was 14±1.0 mm; in data set [8] it was 13±1.0 mm. The molecule also gave an Inhibition zone in data set [9] of 13±2.0 mm. Moreover, the “Effect on biofilm development” value in data set [5] was “much less effective at reducing biofilm development compared with 7b or 7c”. Further, the MIC is reported as 128 µg/mL (≈ 589 µM) against S. aureus ATCC 25923 [6] (control strain S. aureus ATCC 25923); 256 µg/mL (≈ 1180 µM) in the data set on MRSA BEC (BMB9393) (setting [16]); 256 µg/mL (≈ 1180 µM) in the data set with MRSA BEC (BMB9393) (broth microdilution, BEC (BMB9393)); 128 µg/mL (≈ 589 µM) in data set [10] (broth microdilution, USA400 (USA400-0051)); 256 µg/mL (≈ 1180 µM) in data set [11] (broth microdilution, OSPC-USA1100 (07-040)); 256 µg/mL (≈ 1180 µM) in data set [12] (broth microdilution, NY/Japan-USA100 (CR15-071)). Moreover, the MIC in [13] (broth microdilution, USA300 (USA300-0114)) worked out at 128 µg/mL (≈ 589 µM); in [14] (broth microdilution, Pediatric-USA800 (USA800-0179)), 256 µg/mL (≈ 1180 µM). In the data set on Vero cell line, the CC50 amounted to 155.28 ± 1.03 µg/mL (≈ 715 µM).
